Measured values from US20100331812A1, “Pharmaceutical Formulations for Iontophoretic Delivery of an Immunomodulator” (Nitric BioTherapeutics, Inc., priority 2009, published 2010).

Tests used:
[1] = Skin irritation or redness observed in the in vivo studies; design: species or system hairless rat; settings: any of the in vivo studies
Procedure: (§1) A topical delivery system containing 2% w/w drug formulation (consisting of 20% PEG 400, 10% propylene glycol, 20% Transcutol P, 3% Tween 80 and 10% glycerin; in w/w, final pH 3.6) was employed. The formulation was loaded into a cartridge and iontophoresis (0.2 mA/cm^2, 15 min) was used to deliver the drug into the skin using the hairless rat model as described herein. A passive delivery control was run for comparison. […] Transepidermal water loss (TEWL) measurements were taken to ensure the removal of the stratum corneum.

[2] = In vivo skin depot formation and desorption, 2% w/w imiquimod formulation with Transcutol P; design: species or system hairless rat
Procedure: In this example the formation and pharmacokinetics of an imiquimod skin depot following iontophoretic delivery in an in vivo hairless rat model were examined.
as §1

[3] = In vivo skin depot quantification, 0.3% w/w imiquimod formulation
Description: The effect of iontophoresis on its ability to enhance delivery of 0.3% w/w imiquimod (pH 4.0) formulation in vivo into the stratum corneum and the underlying skin (lower epidermis and dermis) was examined.
Hairless rats were anesthetized using Ketamine and Xylazine. An area on the abdomen was marked and cleaned. Drug formulation was loaded onto an iontophoretic drug cartridge and was secured on the area with tape. For iontophoretic delivery, the cartridge was connected to a current source and a TransQ iontophoretic patch (Iomed) served as the counter electrode. A current density of 0.2 mA/cm^2 was applied for 15 min. At the end of 15 min, the drug loaded cartridges were removed and excess drug on the site was removed. Tape stripping (3M Transpore™ tape) was performed to quantify the drug levels in the stratum corneum. Transepidermal water loss (TEWL) measurements were also taken to ensure the complete removal of the stratum corneum. The rats were then euthanized and the skin samples were excised for further analysis. A skin extraction assay was performed to quantify the drug levels in the underlying skin immediately after 15 min iontophoresis or passive.

[4] = cited from earlier work
[5] = Solubility of imiquimod in excipient formulation, by HPLC; format: physicochemical; settings: about 3 mg/mL imiquimod in about 30% w/w PEG 400, 10% w/w glycerin, 3% w/w polysorbate 80 at pH 4
Procedure: (§2) The effect of iontophoresis on the permeation profile of imiquimod across hairless rat skin in vitro was examined. The solubility of imiquimod was tested in various solvent matrices and a formulation with acceptable solubility was employed for further in vitro and in vivo studies as described herein. The following methods were performed.
Using the above methods, various excipients were tested to prepare a formulation with sufficient solubility for imiquimod.

[6] = In vitro permeation across hairless rat skin, Franz diffusion cells, with tape stripping and skin extraction; format: in vitro ADME; settings: for cumulative amount of drug permeated at 24 hr, passive: passive diffusion
Procedure: as §2
For the in vitro studies, Franz diffusion cells were employed. Hairless rats were euthanized by carbon dioxide asphyxiation and the abdominal skin area was excised and carefully cleaned to remove excess fat. The skin was then mounted onto Franz diffusion cells. Citrate buffer with 20% ethanol was employed as the receptor buffer and the drug formulation was placed in the donor chamber. For iontophoretic delivery, a silver/silver chloride electrode system was used. […] Samples were taken at predetermined time points and the receptor chamber was replenished with fresh receptor buffer accordingly. At completion, the skin samples were dismounted and washed with the receptor buffer to remove excess drug. Tape stripping and skin extraction studies were performed to quantify the amount of the drug in the skin. All the samples were analyzed via HPLC (C18 column; mobile phase: acetonitrile/50 mM ammonium acetate (70:30); injection volume: 10 μl UV detection at 250 nm).

[7] = in vivo, 2% w/w, 72 hrs after application
[8] = 0.3% w/w, 0.2 mA/cm^2 for 15 min
[9] = 0.3% w/w, pH 4.0, after about 15 min of treatment

imiquimod delivered to the skin ([2]; 15 min iontophoresis at 0.2 mA/cm^2): approximately 14 ug | total skin drug level, iontophoretic delivery, after 15 min ([2]; in vivo, 2% w/w, pH 3.6, 0.2 mA/cm^2, 15 min): 14.19 ± 2.07 µg | total skin drug level, passive delivery, after 15 min ([2]; in vivo, 2% w/w, pH 3.6, passive, 15 min): 3.26 ± 0.63 µg | drug detection in the stratum corneum at 72 hrs, iontophoretic ([2]; in vivo, 2% w/w, 72 hrs): still detected | drug detection in the underlying skin at 72 hrs, iontophoretic ([2]; in vivo, 2% w/w, 72 hrs): No drug was detected | drug detection in the underlying skin at 72 hrs, passive ([2]; in vivo, 2% w/w, 72 hrs): No drug was detected | total skin drug level, iontophoretic delivery, at 72 hrs [2, 7]: 5.50 ± 2.76 µg | total skin drug level, passive delivery, at 72 hrs [2, 7]: 1.96 ± 0.37 µg | drug in the stratum corneum, iontophoresis [3, 8]: 11.91 µg | drug in the underlying tissue, iontophoresis [3, 8]: 0.591 µg | drug detection in the stratum corneum at 72 hr, iontophoresis ([3]; 0.3% w/w, 72 hr from treatment): still detected | drug detection in the stratum corneum at 72 hr, passive ([3]; 0.3% w/w, 72 hr from treatment): no drug was detected | drug detection in the underlying skin at 72 hr, iontophoresis ([3]; 0.3% w/w, 72 hr from treatment): still detected | drug in the underlying tissue at 72 hr, passive ([3]; 0.3% w/w, 72 hr from treatment): small amount of drug was also present | drug level in the stratum corneum, iontophoresis vs passive ([3]; 0.3% w/w, after 15 min of treatment): 10 fold | drug in the stratum corneum, passive [3, 9]: 1.07 µg | drug in the underlying skin, passive [3, 9]: 0.40 µg | residence time of the depot in the stratum corneum after iontophoresis ([3]; iontophoresis): more than 72 hr | solubility level [5]: about 0.3% | cumulative amount of drug permeated at 24 hours, iontophoresis ([6]; 0.3% w/w formulation, 0.2 mA/cm^2 for 15 min, then passive diffusion to 24 hr): 22.41 μg/cm^2 | permeation following iontophoresis ([6]; 0.3% w/w formulation, iontophoresis for 15 min, end of 24 hr): approximately 22 pg/cm | cumulative amount of drug permeated at 24 hr, passive ([6]; 0.3% w/w formulation): 2.24 μg/cm^2 | cumulative amount of drug permeated at 24 hr, passive ([6]; 0.3% w/w formulation, listed as imiquimod): approximately 2 μg/cm^2 | amount of drug in the underlying skin, iontophoretic ([6]; in vitro, 0.2 mA/cm^2 15 min, end of 24 hr study, skin extraction): 6.31 µg | amount of drug in the stratum corneum, iontophoretic ([6]; in vitro, 0.2 mA/cm^2 15 min, end of 24 hr study, tape stripping): 7.53 µg | amount of drug in the underlying skin, passive ([6]; in vitro, end of 24 hr study, skin extraction): 6.27 µg | amount of drug in the stratum corneum, passive ([6]; in vitro, end of 24 hr study, tape stripping): 1.31 µg
Structure (SMILES): CC(C)Cn1cnc2c(N)nc3ccccc3c21 [Imiquimod]
irritation or redness of the skin [1]: not observed | log P [4]: 2.7 | pKa [4]: 7.3
